System: PMA-treated HL-60 cells
Assay: Lipoxin metabolism / bio-half-life assay with phorbol ester-treated HL-60 cells
Format: in vitro ADME, human
Procedure: HL-60 cells were purchased from American Type Culture Collection (Rockville, Md.), and other cell culture reagents were from GIBCO (Grand Island, N.Y.). Versene (EDTA) was from Whittaker Bioproducts (Walkersville, Md.). Synthetic 11,12-acetylenic LXA4 methyl ester and LXs were from Cascade Biochemical (Reading, U.K.). 15(S)-15-m-PGE1, PGE1, and 5-HETE were from Cayman Chemical Co. (Ann Arbor, Mich.). [11,12-^3H]LXA4 was prepared from 11,12-acetylenic LXA4 using Lindlar catalyst as a custom tritiation (NET-259, lot 0 2793-275, New England Nuclear, Boston, Mass.). Tritiated products were isolated using RP-HPLC (Fiore et al. (1992) J. Biol. Chem. 267:16168; Serhan, C. N. (1990) Meth. Enzymol. 187:167). Methoxyamine and NAD were from Sigma Chemical Company (St. Louis, Mo.). Manganese dioxide and Adams reagent were from Aldrich Chemical Co. (Milwaukee, Wis.).
Human PMN were obtained from healthy volunteers by gradient centrifugation of heparinized fresh venous blood (Böyum, A. ([…]) Scand. J. Clin. Lab. Invest. 21:77). HL-60 cells were seeded in RPMI supplemented with penicillin (100 U/ml), streptomycin (100 μ/ml), fetal bovine serum (10%) (Hyclone, Logan, Utah) and incubated (37° C. with 5% CO2 atmosphere) in plastic 250 ml flasks. Individual flasks containing […] HL-60 cells/ml were incubated in the presence or absence of phorbol 12-myristate 13-acetate (PMA) (10 or 16 nM, 24-27 h) and adherence was monitored for induction of macrophage-like phenotype as in Collins, S. J. (1987) Blood 70:1233. […]
Incubations with eicosanoids were stopped with cold methanol containing either PGB2 or 5-HETE as internal standards (5-HETE was used when 15-oxo-ETE was quantified). […] Formation of 15-oxo-ETE by 100,000 g supernatants (cf. Agins, A. P. et al. (1987) Agents Actions 21:397; Xun, C-Q. et al.(1991) Biochem. J. 279:553; and Sok, D-E. et al. (1988) Biochem. Biophys. Res. Commun. 156:524) was quantified after RP-HPLC using an ODS column (4.6 mm×25 cm) eluted with methanol/H2O/acetic acid (70:30:0.01, v/v/v) monitored at 280 nm with a flow rate of 1 ml/min. […] On-line spectra were recorded using a diode array detector (Hewlett-Packard 1040M series II) equipped with HPLC^3D ChemStation software (DOS series). […]
The “bio-half-life” of compounds 1-8 was assessed using phorbol ester-treated human promyelocytic leukemia (HL-60) cells as described in Example 2. […]

In the case of `CCCCC[C@H](O)/C=C/C=C\C=C\C=C\[C@@H](O)[C@@H](O)CCCC(=O)O` [LXA4, (5S, 6R, 15S)-trihydroxy-7E, 9E, 11Z, 13E-eicosatetraenoic acid], the LXA4 metabolized (PMA-treated HL-60 cells, within the first 60 s of exposure) is reported as over 70% and the “LXA4 converted” value (within five minutes of addition to the cell incubation) is reported as “more than 95%”.

From patent US20030134901A1, “Lipoxin compounds and their use in treating cell proliferative disorders” (priority 1993, published 2003)
